The values that follow come from patent publication US9801373B2, “Compounds for alleviating phosphate starvation symptoms in plants” (Commissariat a l'Energie Atomique et aux Energies …, priority 2012, dated 2017).

One series has as its system PHT1 genes (PHT1;4). In words: qPCR of PHT1 transcript level on root mRNA. It counts as in vivo, Arabidopsis thaliana. The procedure:
(§1) Plant RNA was extracted with the RNeasy kit (QIAGEN, France). For transcriptome data, RNA were analysed by the CATMA technology (Complete Arabidopsis Transcriptome Microarray). For qPCR, poly(dT) cDNA were prepared from 500 ng total RNA with Superscript III reverse transcriptase (Invitrogen, France) and analysed on a LightCycler 480 apparatus (Roche Diagnostics, France) with the SYBR Green I Master kit (Roche Diagnostics, France) according to the manufacturer's instructions. Targets were quantified with specific primer pairs designed with Primer3 website (http://frodo.wi.mit.edu/primer3/) (see Table II below). Biological triplicates were performed for all experiments. Expression levels were normalized using At2g16600, At3g04120, At1g35160 and At1g32050 genes.

Another series concerns Pi uptake capacity. In words: Phosphate uptake experiments (33PO4). It counts as in vivo, Arabidopsis thaliana. Conditions: −Pi+PTN1 vs −Pi, 7-day-old plantlets, FIG. 3 (B). The procedure:
Phosphate uptake experiments were performed as previously described by Narang et al. (2000). 24 seedlings per conditions were incubated separately in a phosphate incubation solution containing ^33PO4 (5 mM MES, 0.1 mM CaCl2, 20 μM KH2PO4, 0.15 μCi/ml ^33PO4) for 2 h. After incubation in the uptake solution, plantlets were transferred to a chilled desorption medium (5 mM MES, 0.1 mM CaCl2, 1 mM KH2PO4) for 2 h at 4° C. Then, the seedlings were dried in scintillation vials at 60° C. overnight. An amount of 2 ml of scintillation cocktail (InstaGel, PerkinElmer, Wellesley, Mass., USA) was added and the radioactivity was measured with a scintillation analyzer (TRICARB, Packard instrument company). The amount of phosphate absorbed during the experiment was calculated and normalized per cm of root.

A short description of series [1]: Total phosphorus content by ICP. It counts as in vivo, Arabidopsis thaliana. Conditions: FIG. 3 (C). The procedure:
(§2) For the quantification of ions content, 50 mg of dry weight of each sample were mineralized in 14% HNO3 using a MarsX microwave system (CEM) for the determination of macro- and microelements by inductively coupled plasma optical emission spectrometry (ICP OES Vista MPX, Varian). Biological triplicates were performed for all experiments.

The test system of series [2] is PAP12, PAP17 and PAP22 genes. In words: Expression of acid phosphatase (PAP) genes. It counts as in vivo, Arabidopsis thaliana. As to conditions: −Pi. The procedure:
as §1

Series [3] concerns phospholipids / glycolipids. The experiment in a line: Lipid composition of aerial part. It counts as in vivo, Arabidopsis thaliana. The procedure: (§3) Lipids and anthocyanins were analyzed as previously described by Jouhet (2003) and Ticconi (2001).
The test system of a further series is root cortical cells. The experiment in a line: Cortical cell size of root. It counts as in vivo, Arabidopsis thaliana. Conditions: −Pi seedlings, FIG. 7 (C).
In series [4] the test system is lpr1, lpr2 and lpi mutants. In words: Primary root growth of mutants with reduced root sensitivity to Pi starvation. It counts as in vivo, Arabidopsis thaliana. As to conditions: 7-days-old plants, PTN1 40 μM, FIG. 8. The source says:
(§4) A “chemical genetics” approach has been carried out to isolate compounds that inhibit the phosphate (Pi) response in Arabidopsis thaliana. Compounds were screened for their ability to inhibit the expression of a phosphate starvation marker, namely the high affinity Pi transporter PHT1,4 gene. For the screening, the A. thaliana pht1;4-1 line (ecotype Wassilewskija) was chosen (Misson et al., 2004). It contains a T-DNA construct inserted into Pht1;4 gene creating a transcriptional fusion with a GUS reporter gene. For phenotypic analyses, A. thaliana Columbia and various lines derived from this ecotype were used. They are either transgenic lines expressing reporter gene as cycB1::GUS (Colón Carmona et al., 1999), MGD3::LUC, PHT1;4::LUC, At1g73010::LUC or various mutants affecting root response to low Pi such as: pdr2 (Ticconi et al., 2004), lpr1, lpr2 (Svistoonoff et al., 2007), lpi1, lpi2 and lpi3 (Sanchez-Calderon et al., 2006).
(§5) In the Pi deficient medium, NaCl (0.5 mM) was used to replace the equivalent amount of sodium provided by NaH2PO4. For controls of the effects of the compounds, 1% of DMSO (Dimethyl sulfoxid, SIGMA, 472301), solvent for the tested compounds, was added. […] Root architecture and aerial part area were quantified using program ImageJ.

Another series relates to pdr2 and phr1 mutants. In words: Primary root growth of pdr2 and phr1 mutants. As to conditions: 40 μM, 9 days after germination, FIG. 7 (E). It counts as in vivo, Arabidopsis thaliana.
Text: as §4, §5

Series [5] can be described thus: Optical density curves of PTN1 with FeCl2. It counts as physicochemical. Conditions: PTN1 40 μM + FeCl2 10 μM, FIG. 9 (A).
A further series is described as follows: Fe content assay by ICP. It counts as in vivo, Arabidopsis thaliana. Conditions: −Pi+PTN1 40 μM, FIG. 9 (B). The procedure:
as §2

For a further series, the system named is Col-0 plants. In words: Shoot (rosette) area after 28 days. As to conditions: four weeks on −Pi medium, FIG. 10 (A), (B). It counts as in vivo, Arabidopsis thaliana. The procedure:
(§6) In the Pi deficient medium, NaCl (0.5 mM) was used to replace the equivalent amount of sodium provided by NaH2PO4. For controls of the effects of the compounds, 1% of DMSO (Dimethyl sulfoxid, SIGMA, 472301), solvent for the tested compounds, was added. After 2 days at 4° C., the plates were placed in a vertical position and plants were grown in a culture chamber under a 16 h light/8 h dark regime (24/21° C., 150 μE m^−2s^−1). For 4 weeks culture, large plates (24×24 cm) were placed in a horizontal position. Root architecture and aerial part area were quantified using program ImageJ.

The next series has as its system anthocyanin accumulation. In words: Anthocyanins content. It counts as in vivo, Arabidopsis thaliana. As to conditions: FIG. 10 (C). The procedure:
as §3

The next series relates to starch accumulation. In words: Starch staining with lugol. It counts as in vivo, Arabidopsis thaliana. Conditions: FIG. 10 (D). The procedure: Starch staining was performed according to Zakhleniuk et al. (2001). Aerial part of plants was placed 6 h in EtOH 90% before to be iodine stained for 30 min in lugol (lugol solution; Sigma, France) and washed several times in water.

In the next series the test system is lpr1 mutant. In words: Shoot growth of lpr1 mutant. Conditions: −Pi, FIG. 11. It counts as in vivo, Arabidopsis thaliana. The procedure:
as §6

[6] abbreviates: −Pi medium containing PTN1, FIG. 5 (B).

“Also recorded” adds a separate entry of the source.

As to `O=c1c(Sc2ccc(Cl)cc2)c(Sc2ccc(Cl)cc2)c1=O` [PTN1], the “reduction of the impact of Pi starvation on the level of induction of PHT1 transcripts” value in the series on PHT1 genes (PHT1;4) (40 μM, roots, 7-day-old plantlets, FIG. 3 (A)) is on record as “at least 50%”. The “efficiency on PHT1;4 relative to PTN2” value with PHT1 genes (PHT1;4) (FIG. 2 (B)) is recorded as “twice more efficient than PTN2”. Besides, in the series with PHT1 genes (PHT1;4) (qPCR on root mRNA, FIG. 2 (B)), the “effect on PHT1;4 transcript level” value is on record as “dose dependant manner”. Further, in the series on Pi uptake capacity, the “reduction of Pi uptake capacity” value worked out at 25%. For the same compound, in series [1], the “phosphorous amount vs −Pi control, leaves” value is “+40%” and the “phosphorous amount vs −Pi control, shoot” value is reported as “+90%”. Besides, the “expression level of PAP12, PAP17 and PAP22 genes” value in series [2] is “reduced the expression level”. For the same compound, the “reduction of DGDG content” value in series [3] (Pi-starved plants, aerial part, 10-day-old, FIG. 5 (C)) was 27%. In [3] (setting [6]), the “glycolipids share in ratio of phospholipids onto glycolipids” value was 75% and the “phospholipids share in ratio of phospholipids onto glycolipids” value was 25%. Besides, the “PC and PE content” value in [3] (−Pi seedlings, FIG. 5 (C)) was “partially reverted the effect of −Pi”. The “root cortical cell elongation” value with root cortical cells is “restored root cell elongation of −Pi seedlings to an extant closed to the untreated control grown on a +Pi medium”. Moreover, the “primary root growth of lpr1 or lpi mutants” value in [4] is given as “no additive effect; also recorded: did not impact the primary root growth”. Further, in the series with pdr2 and phr1 mutants, the “root growth of pdr2 mutant” value is listed as “substantially reverted the root growth defect” and the “root growth restriction of phr1 mutant imposed by −Pi” value was “partially alleviated”. The “absorption spectrum of solution containing PTN1 and Fe2+” value in series [5] is “identical to the PTN1 control without FeCl2”. Besides, the “Fe content in plants” value in the series “Fe content assay by ICP” is reported as “did not reduce the Fe content”. In addition, the “rosette area (leaf growth) vs −Pi” value with Col-0 plants was “+50%”. Further, the “anthocyanin accumulated, less than control grown on −Pi” value with anthocyanin accumulation is listed as “around 60%”. Further, the starch accumulation result in the series on starch accumulation is recorded as “severely attenuated”. Also, the “anthocyanins accumulation in leaves of lpr1” value in the series on lpr1 mutant was “substantially suppressed this accumulation”.
